Eight compounds from US20030225007A1, “Sulfonamide derivatives of 3-substituted imidazol[1,2-d]-1,2,4-thiadiazoles and 3-substituted-[1,2,4] thiadiazolo[4,5-a] benzimidazole as inhibitors of fibrin cross-linking and transglutaminases” (Apotex Inc., priority 2002, published 2003) can be followed below.

As a reminder, the IC50 is the concentration that gives 50% inhibition. As usually defined, the melting point is the temperature of the solid-liquid transition.

Series [1] concerns the target T1, endogenous Factor XIII in plasma (Plasma FXIIIa) (Homo sapiens, UniProt P00488).
T1 construct: from tissue; host or cells: citrated plasma (desensitized by heating)
T1 sequence (P00488 39-732 limits assumed): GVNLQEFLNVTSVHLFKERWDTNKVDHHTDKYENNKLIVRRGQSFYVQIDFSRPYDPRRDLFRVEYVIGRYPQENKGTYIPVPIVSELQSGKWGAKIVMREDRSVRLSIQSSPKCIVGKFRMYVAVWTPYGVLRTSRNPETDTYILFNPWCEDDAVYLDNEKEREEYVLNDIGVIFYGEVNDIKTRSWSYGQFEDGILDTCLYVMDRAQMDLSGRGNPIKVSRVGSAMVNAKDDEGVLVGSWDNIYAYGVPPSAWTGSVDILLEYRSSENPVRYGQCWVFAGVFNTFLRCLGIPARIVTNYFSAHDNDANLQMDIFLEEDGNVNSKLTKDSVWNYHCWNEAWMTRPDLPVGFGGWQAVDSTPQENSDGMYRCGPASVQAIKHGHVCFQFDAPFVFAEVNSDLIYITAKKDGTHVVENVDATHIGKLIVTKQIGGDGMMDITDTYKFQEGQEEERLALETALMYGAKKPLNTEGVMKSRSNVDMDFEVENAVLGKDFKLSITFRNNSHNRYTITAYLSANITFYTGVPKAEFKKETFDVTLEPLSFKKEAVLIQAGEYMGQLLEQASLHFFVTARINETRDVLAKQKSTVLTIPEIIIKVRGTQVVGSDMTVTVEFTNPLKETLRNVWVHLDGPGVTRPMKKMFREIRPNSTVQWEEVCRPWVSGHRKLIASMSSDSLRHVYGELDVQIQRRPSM
As to the kind of experiment: Inactivation of endogenous Factor XIII in plasma. Type of series: biochemical. The following applies: citrated plasma, thrombin-activated, 5 min at 37° C. As for the experimental part:
Citrated plasma (0.235 mL) was “desensitized” by heating with ethylene glycol monomethyl ether (0.235 mL, 20% solution in water) in a glass test tube at 56° C. for 4 min., as described by Lorand (Lorand, L.; Lockridge, O. M.; Campbell, L. K.; Myhrman, R.; Bruner-Lorand, J. Anal.Biochem. 1971, 44, 221-231). After cooling to 37° C., calcium chloride (20 μL, 0.4 M in 50 mM Tris-HCl pH 7.5) and inhibitor solution in 50% glycerol (59 μL) were added. Bovine thrombin (30 NIH units in 118 μL of 50 mM Tris-HCl pH 7.5 containing 20 mM CaCl2) was added and the mixture was incubated at 37° C. for 5 min.
An assay mixture composed of 0.1 M sodium borate, pH 9.0, 0.3% ethylene glycol monomethyl ether, 32 μM monodansylcadaverine, 10 mM CaCl2 and 0.08% dimethyl casein in a final volume of 1.263 mL was prepared in a spectrofluorometric cell and incubated at 37° C. for a few minutes. To assay the residual enzyme activity, 567 μL of the plasma solution was transferred to the assay mixture. The covalent incorporation of monodansylcadaverine into casein was monitored by an increase in fluorescence at λex=360 nm and λem=500 nm, as previously described (Curtis, C. G.; Lorand, L. Methods Enzymol. 1976, 45, 177-191). To determine uninhibited enzyme activity, inhibitor solution was replaced by 50% glycerol. IC50 values (inhibitor concentration resulting in 50% enzyme inactivation) were determined by plotting the percent of remaining enzyme activity against logarithm of inhibitor concentration.

The target in series [2] is T2, Factor XIIIa (activated FXIII) (Homo sapiens, UniProt P00488).
T2 construct: purchased Enzyme Research Laboratories, Ltd
T2 sequence (P00488 39-732 limits assumed): T1 sequence (P00488 39-732 limits assumed)
As to the kind of experiment: Inactivation of purified Factor XIIIa (monodansylcadaverine incorporation into dimethylcasein, fluorescence). Type of series: biochemical. As for the experimental part:
FXIII (0.5 mg/mL, Enzyme Research Laboratories, Ltd.) in 50 mM Tris-HCl pH 7.5 containing 100 mM NaCl, 40 mM CaCl2, 1 mM EDTA and 0.1% poly(ethylene glycol) (app. MW=8000) was activated by incubation with 10 NIH units/mL of human thrombin (Calbiochem) at 37° C. for 20 min. Thrombin was quenched with 20 NIH units/mL of hirudin from Leech (Sigma).
Inhibitor solution in DMSO (14 μL) was added to 120 μL of 250 mM Tris-Cl pH 7.5 containing 40 mM CaCl2 and 1 mM EDTA and the solution was incubated at 37° C. for two minutes. Activated FXIII (5 μL, 0.5 mg/mL) was added and the mixture was incubated at 37° C. for 5 min.
An assay mixture composed of 50 mM Tris-Cl pH 8.0, 10 mM CaCl2, 1 mM EDTA, 0.1% poly(ethylene glycol) (app. MW=1000) and 20 μM monodansylcadaverine was prepared in a spectrofluorometric cell in a final volume of 2880 μL. Dimethylcasein (8 μL, 1% in 50 mM sodium phosphate pH 7.5) was added and the solution was incubated at 37° C. for a few minutes. To assay the residual enzyme activity, 120 μL of the solution containing the enzyme and the inhibitor was transferred to the assay mixture. The covalent incorporation of monodansylcadaverine into casein was monitored by an increase in fluorescence at λexc=360 nm and λem=500 nm as previously described (Curtis, C. G.; Lorand, L. Methods Enzymol. 1976, 45, 177-191). To determine uninhibited enzyme activity, DMSO was used in place of inhibitor solution in the above assay. IC50 were determined by plotting the percent of remaining enzyme activity against logarithm of inhibitor concentration. IC50 is defined here as an inhibitor concentration resulting in 50% enzyme inactivation after 5-min incubation of the enzyme with the inhibitor in the absence of the substrate. Second order rate constants for inactivation were determined using method described by Kitz and Wilson (Kitz, R.; Wilson, I. J. Biol. Chem. 1962, 237, 3245).

The target in the next series is T3, Guinea pig liver TGase (Cavia cutleri, UniProt P08587).
T3 construct: Guinea pig liver TGase; from tissue; host or cells: guinea pig liver
T3 sequence (P08587 2-690): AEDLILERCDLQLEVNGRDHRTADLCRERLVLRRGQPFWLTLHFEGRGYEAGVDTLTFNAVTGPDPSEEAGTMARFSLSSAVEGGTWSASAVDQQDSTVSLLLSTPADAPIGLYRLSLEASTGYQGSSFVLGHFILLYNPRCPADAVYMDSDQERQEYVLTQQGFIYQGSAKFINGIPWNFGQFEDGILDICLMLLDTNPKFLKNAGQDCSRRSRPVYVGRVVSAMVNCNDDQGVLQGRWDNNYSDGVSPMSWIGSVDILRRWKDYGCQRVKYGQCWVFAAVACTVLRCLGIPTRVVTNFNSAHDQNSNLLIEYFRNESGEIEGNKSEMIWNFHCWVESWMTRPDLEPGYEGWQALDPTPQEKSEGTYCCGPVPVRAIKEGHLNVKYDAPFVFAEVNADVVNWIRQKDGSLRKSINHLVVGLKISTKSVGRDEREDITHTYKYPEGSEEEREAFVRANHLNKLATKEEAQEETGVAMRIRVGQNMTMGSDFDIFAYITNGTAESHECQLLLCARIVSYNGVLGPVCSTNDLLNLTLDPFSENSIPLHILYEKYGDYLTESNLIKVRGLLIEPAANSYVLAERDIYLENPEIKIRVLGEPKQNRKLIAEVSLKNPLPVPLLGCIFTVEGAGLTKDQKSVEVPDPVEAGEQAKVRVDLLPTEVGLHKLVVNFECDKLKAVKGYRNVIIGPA
Kind of series: Enzyme selectivity: inactivation of tissue type transglutaminase. It counts as biochemical. The conditions noted are these: Guinea pig liver TGase; 5-min incubation at 37° C. in the absence of substrate; read-out: TGAse IC50. As for the experimental part:
Enzyme selectivity . Inactivation of tissue type transglutaminase: Inhibitor solution in DMSO (5 μL) was added to 250 mM Tris-Cl pH 7.5 containing 40 mM CaCl2 and 1 mM EDTA in a final volume of 42 μL. Guinea pig liver TGase (3 μL, 2.5 mg/mL in 5 mM Tris-HCl pH 7.5, 2 mM EDTA) was added and the mixture was incubated for 5 min. at 37° C.
An assay mixture composed of 50 mM Tris-Cl, pH 8.0, 10 mM CaCl2, 1 mM EDTA, 0.1% poly(ethylene glycol) (app. MW=1000) and 20 μM monodansylcadaverine was prepared in a spectrofluorimetric cell in a final volume of 2952 μL. Dimethylcasein (8 μL, 1% in 50 mM sodium phosphate pH 7.5) was added and the mixture was incubated at 37° C. for a few minutes. To assay the residual enzyme activity, 40 μL of the solution containing the enzyme and the inhibitor was transferred to the assay mixture. The covalent incorporation of monodansylcadaverine into casein was monitored by an increase in fluorescence at λexc=360 nm and λem=500 nm, as previously described ((Curtis, C. G.; Lorand, L. Methods Enzymol. 1976, 45, 177-191). To determine uninhibited enzyme activity, DMSO was used in place of inhibitor solution in the above assay. IC50 values were determined by plotting the percent of remaining enzyme activity against logarithm of inhibitor concentration. IC50 is defined here as inhibitor concentration resulting in 50% enzyme inactivation after 5-min incubation of the enzyme with the inhibitor in the absence of the substrate. Second order rate constants for inactivation were determined using method described by Kitz and Wilson (Kitz, R.; Wilson, I. J.Biol.Chem. 1962,237, 3245).

Where [3] appears, read: purified activated FXIII, 50% enzyme inactivation after 5-min incubation with inhibitor at 37° C. in the absence of substrate, read-out: FXIIIa (IC50 in μM).

Read-outs that look alike come from different tables or passages of the source.

The compound `CN(C)c1cccc2c(S(=O)(=O)NCCCCCNc3nsc4nccn34)cccc12` [1 / 5-Me2N-1-naphthyl, 5-(Dimethylamino)-N-[5-(imidazo[1,2-d][1,2,4]thiadiazol-3-ylamino)pentyl]naphthalene-1-sulfonamide] yielded a 50% inhibitory concentration (IC50) in series [1] of 7.1 µM.
In the case of `CS(=O)(=O)NCCCCCCNc1nsc2nccn12` [2 / CH3, N-[6-(Imidazo[1,2-d][1,2,4]thiadiazol-3-ylamino)hexyl]methanesulfonamide], in series [1], it took 38 µM to reach half-maximal inhibition (IC50).
`O=C(O)CCN(CCCCCCNc1nsc2nccn12)S(=O)(=O)c1ccc(F)cc1F` [2 / OH / 2-F-4-F-Ph, N-[(2,4-difluorophenyl)sulfonyl]-N-[6-(imidazo[1,2-d][1,2,4]thiadiazol-3-ylamino)hexyl]-β-alanine] displayed a melting point of 97 to 100 °C. For the same compound, the IC50 in series [2] (setting [3]) amounted to 5.2 µM.
The corresponding values for `Cc1c(Cl)cccc1S(=O)(=O)NCCCCCCNc1nsc2nccn12` [2-Me-3-Cl-Ph, 3-chloro-N-[6-(imidazo[1,2-d][1,2,4]thiadiazol-3-ylamino)hexyl]-2-methylbenzenesulfonamide] are 151 to 153 °C and 1.3 µM.
The corresponding values for `Cc1ccc(F)cc1S(=O)(=O)NCCCCCCNc1nsc2nccn12` [2-Me-5-F-Ph, 5-fluoro-N-[6-(imidazo[1,2-d][1,2,4]thiadiazol-3-ylamino)hexyl]-2-methylbenzenesulfonamide] are 140 to 142 °C and 10 µM.
In turn, `Nc1ccccc1S(=O)(=O)NCCCCCCNc1nsc2nccn12` [2-NH2-Ph, 2-amino-N-[6-(imidazo[1,2-d][1,2,4]thiadiazol-3-ylamino)hexyl]benzenesulfonamide] came in with a melting point of 138 to 139 °C. Moreover, the half-maximal inhibitory concentration (IC50) in series [2] (setting [3]) was found to be 2 µM.
Compound `O=[N+]([O-])c1ccccc1S(=O)(=O)NCCCCCCNc1nsc2nccn12` [H / H / 2-NO2-Ph, N-[6-(imidazo[1,2-d][1,2,4]thiadiazol-3-ylamino)hexyl]-2-nitrobenzenesulfonamide] registered a melting point of 113.7 to 114.6 °C.
Take “N-imidazo[1,2-d][1,2,4]thiadiazol-3-yl-N-(6-{[(2-nitrophenyl)sulfonyl]amino}hexyl)glycinamide [H / CH2CONH2 / 2-NO2-Ph]”: the concentration for half-maximal inhibition (IC50) on Guinea pig liver TGase is 32 µM; in series [2] (setting [3]) it was 0.42 µM; in series [2] (values without asterisk, purified FXIIIa, 5-min incubation, read-out: FXIIIa IC50 determined by method in Example 16), 0.42 µM. Besides, in series [2] (purified Factor XIIIa, method of Kitz and Wilson), the “Second order rate constant for inactivation” value was 6700 M⁻¹ s⁻¹.
